Legend:
Type in all cases: cell-based
[1] = molecular target: T1, FGFR3-BAIAP2L1 Ba/F3 cells (Homo sapiens, UniProt P22607); experiment: Ba/F3 cell viability assay, FGFR3; settings: FGFR3-BAIAP2L1 fusion Ba/F3, 48 hours, Cell Titer-Glo 2.0; read-out: Ba/F3 Cells FGFR3 (IC50 nM)
T1 construct: Ba/F3 FGFR3; FGFR3--BAIAP2L1 fusion; Advanced Cellular Dynamics, (Seattle, WA); fused on or other part: Q9UHR4 (BAR/IMD domain-containing adapter protein 2-like 1)
From the text: (§1) Experimental Purpose: Recombinant kinase fusions are transduced into parental Ba/F3, which becomes dependent upon this constitutive kinase activity for IL3-independent survival. Inhibition of kinase activity leads to cell death, which is monitored using CellTiter-Glo® 2.0 (Promega) which measures intracellular ATP concentration that in turn serves as a marker for viability. FGFR1-BCR Ba/F3 and FGFR3-BAIAP2L1 Ba/F3 were obtained from Advanced Cellular Dynamics (Seattle, Wash.)
(§2) Cell Viability Assay Procedure: Cell Titer-Glo® 2.0 Luminescent cell viability assay reagent was purchased from Promega (Madison, Wis.). FGFR1-BCR Ba/F3 and FGFR3-BAIAP2L1 Ba/F3 cells were cultured in RPMI1640 media supplemented with 10% fetal bovine serum. Cultures were maintained at 37° C. in a humidified atmosphere of 5% CO2 and 95% air.
(§3) Cells were plated in 96-well clear bottom/white plates (Corning #3903) at 10,000 cells/well in 100 μl of media, incubated overnight. The next day, test compound DMSO stock solutions were made at 10 mM and 2 μM final concentration. Compounds were then added to cells in a 9-dose, 10-fold dilution series starting at 30 μM with an HP 300e Digital Dispenser (each dose was applied in triplicate). DMSO was backfilled to each well up to 301 nL total volume of test compound+DMSO, and a total of 301 nL DMSO was added to a control/no test compound well in triplicate. The cells in cell culture plates were incubated with the compounds at 37° C. and 5% CO2 for 48 hours. Then 50 μl of Cell Titer Glo 2.0 reagent was added to each well of the cell culture plates. The contents were covered from light and mixed on an orbital shaker at room temperature for 10 min. Luminescence was recorded by a Synergy H1 Microplate Reader (Biotek, Winooski, Vt.). Cells were assessed as a percentage of DMSO only treated control cells. Curves were plotted and IC50 values were calculated using the GraphPad Prism 8 program based on a sigmoidal dose-response equation (4 parameter).

[2] = tested on: UM-UC-14 cells (Bladder Cancer, FGFR3(S249C)); experiment: Cancer cell line cell viability assay, UM-UC-14; settings: UMUC14; 72 hours, Cell Titer-Glo 2.0; read-out: Cancer Cell Viability Assays UM-UC-14 (IC50 nM)
From the text: To detect the change of intracellular ATP by Cell Titer-Glo® and to evaluate the inhibitory effect of the compounds on cancer cell lines by determining the in vitro IC50 value of the compounds.
Cell Titer-Glo® 2.0 Luminescent cell viability assay reagent was purchased from Promega (Madison, Wis.). RT112/84, SNU-16, and KG-1 cell lines were purchased from American Type Culture Collection (Manassas, Va.). UM-UC-14 cell line was purchased from Sigma (St. Louis, Mo.). RT112/84, UM-UC-14, SNU-16, and KG-1 cells were cultured in RPMI1640 media supplemented with 10% fetal bovine serum. Cultures were maintained at 37° C. in a humidified atmosphere of 5% CO2 and 95% air.
Cell Viability Assay Procedure: Cells were plated in 96-well clear bottom/white plates (Corning #3903) at 10,000 cells/well in 100 μl of media, incubated overnight. The next day, test compound DMSO stock solutions were made at 10 mM and 2 μM final concentration. Compounds were then added to cells in a 9-dose, 10-fold dilution series starting at 30 μM with an HP 300e Digital Dispenser (each dose was applied in triplicate). DMSO was backfilled to each well up to 301 nL total volume of test compound+DMSO, and a total of 301 nL DMSO was added to a control/no test compound well in triplicate. The cells in cell culture plates were incubated with the compounds at 37° C. and 5% CO2 for 72 hours. Then 50 μl of Cell Titer Glo 2.0 reagent was added to each well of the cell culture plates. The contents were covered from light and mixed on an orbital shaker at room temperature for 10 min. Luminescence was recorded by a Synergy H1 Microplate Reader (Biotek, Winooski, Vt.). Cells were assessed as a percentage of DMSO only treated control cells. Curves were plotted and IC50 values were calculated using the GraphPad Prism 8 program based on a sigmoidal dose-response equation (4 parameter).

FGFR1-BCR Ba/F3 cells = molecular target: T2, FGFR1-BCR Ba/F3 cells (Homo sapiens, UniProt P11362); experiment: Ba/F3 cell viability assay, FGFR1; settings: FGFR1-BCR Ba/F3, 48 hours, Cell Titer-Glo 2.0; read-out: Ba/F3 Cells FGFR1 (IC50 nM)
T2 construct: Ba/F3 FGFR1; FGFR1-BCR; Advanced Cellular Dynamics, (Seattle, WA); fused on or other part: P11274 (Breakpoint cluster region protein)
T2 sequence (P11362 whole entry, change not shown, the tested form may be a part): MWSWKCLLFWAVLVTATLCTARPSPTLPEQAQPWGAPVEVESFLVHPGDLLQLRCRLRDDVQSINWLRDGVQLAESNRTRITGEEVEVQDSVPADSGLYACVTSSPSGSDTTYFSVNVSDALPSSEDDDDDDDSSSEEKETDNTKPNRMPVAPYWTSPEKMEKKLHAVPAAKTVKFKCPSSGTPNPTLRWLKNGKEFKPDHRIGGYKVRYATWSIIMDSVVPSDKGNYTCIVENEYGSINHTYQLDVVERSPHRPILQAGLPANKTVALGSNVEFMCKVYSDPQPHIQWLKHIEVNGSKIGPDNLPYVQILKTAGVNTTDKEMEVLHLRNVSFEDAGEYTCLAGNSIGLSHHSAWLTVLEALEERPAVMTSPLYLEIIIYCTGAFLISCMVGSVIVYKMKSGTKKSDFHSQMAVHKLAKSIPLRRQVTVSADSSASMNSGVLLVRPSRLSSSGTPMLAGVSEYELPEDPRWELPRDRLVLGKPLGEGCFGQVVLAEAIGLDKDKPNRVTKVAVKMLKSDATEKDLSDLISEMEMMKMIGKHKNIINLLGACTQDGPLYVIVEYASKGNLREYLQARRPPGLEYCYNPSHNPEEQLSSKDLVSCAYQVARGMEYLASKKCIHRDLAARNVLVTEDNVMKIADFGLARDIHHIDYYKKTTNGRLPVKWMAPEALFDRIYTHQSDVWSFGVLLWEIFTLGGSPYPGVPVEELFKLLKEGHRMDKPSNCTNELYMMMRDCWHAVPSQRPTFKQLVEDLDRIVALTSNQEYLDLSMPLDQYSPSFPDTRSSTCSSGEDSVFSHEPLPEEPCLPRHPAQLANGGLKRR
From the text: as §1, §2, §3

[3] = tested on: SNU-16 cells (Gastric Carcinoma, FGFR2 amplification); experiment: Cancer cell line cell viability assay, SNU-16; settings: Homo sapiens, 72 hours, Cell Titer-Glo 2.0, read-out: Cancer Cell Viability Assays SNU-16 (IC50 nM)
Summary of the method: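 RT112/84 or SNU-16 cells (10,000/well) treated 72 h at 37° C. with a 9-dose, 10-fold series from 30 μM, in triplicate. Viability by CellTiter-Glo 2.0 luminescence relative to DMSO controls; IC50 from 4-parameter sigmoidal fit.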

T1 sequence (P22607 whole entry, change not shown, the tested form may be a part): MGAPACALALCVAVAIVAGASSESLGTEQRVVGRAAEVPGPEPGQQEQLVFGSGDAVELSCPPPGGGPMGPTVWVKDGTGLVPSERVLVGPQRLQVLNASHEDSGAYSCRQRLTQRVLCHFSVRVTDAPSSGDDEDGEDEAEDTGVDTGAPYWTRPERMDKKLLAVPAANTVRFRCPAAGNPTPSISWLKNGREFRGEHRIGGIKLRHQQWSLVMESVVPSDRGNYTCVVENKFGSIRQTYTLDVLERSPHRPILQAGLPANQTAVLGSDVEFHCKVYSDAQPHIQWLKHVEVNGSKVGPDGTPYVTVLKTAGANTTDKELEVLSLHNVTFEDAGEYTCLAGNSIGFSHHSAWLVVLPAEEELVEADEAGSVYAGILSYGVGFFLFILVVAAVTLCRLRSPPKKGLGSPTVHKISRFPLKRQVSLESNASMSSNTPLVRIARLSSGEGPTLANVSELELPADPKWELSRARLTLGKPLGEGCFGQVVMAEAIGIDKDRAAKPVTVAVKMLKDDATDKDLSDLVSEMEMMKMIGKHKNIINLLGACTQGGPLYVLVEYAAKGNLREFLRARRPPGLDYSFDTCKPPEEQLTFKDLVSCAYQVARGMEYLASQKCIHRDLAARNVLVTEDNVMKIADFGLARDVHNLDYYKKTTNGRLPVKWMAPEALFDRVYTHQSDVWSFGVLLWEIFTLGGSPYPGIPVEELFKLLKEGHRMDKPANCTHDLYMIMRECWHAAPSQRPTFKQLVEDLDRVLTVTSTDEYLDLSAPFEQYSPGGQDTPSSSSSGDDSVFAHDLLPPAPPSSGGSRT

IC50 [2]	IC50 [3]	SMILES	GI50 [1]	GI50 (FGFR1-BCR Ba/F3 cells)
6 nM		C=CC(=O)Nc1ccc2c(c1)c(C)cn2-c1nc(Nc2ccc(N=S(C)(C)=O)c(F)c2)ncc1Cl [Example 60, N-[1-[5-Chloro-2-[4-[[dimethyl(oxo)-λ^6-sulfanylidene]amino]-3-fluoro-anilino]pyrimidin-4-yl]-3-methyl-indol-5-yl]prop-2-enamide]	10 nM	2 nM
12 nM		C=CC(=O)Nc1ccc2c(c1)c(C)cn2-c1nc(Nc2ccc(N=S(C)(C)=O)cc2)ncc1Cl [Example 61, N-[1-[5-Chloro-2-[4-[[dimethyl(oxo)-λ^6-sulfanylidene]amino]anilino]pyrimidin-4-yl]-3-methyl-indol-5-yl]prop-2-enamide]	15 nM	2 nM
152 nM		C=CC(=O)Nc1ccc2c(c1)c(C)cn2-c1nc(Nc2ccc(N=S(C)(C)=O)c(F)c2)ncc1C#N [Example 62, N-[1-[5-Cyano-2-[4-[[dimethyl(oxo)-λ^6-sulfanylidene]amino]-3-fluoro-anilino]pyrimidin-4-yl]-3-methyl-indol-5-yl]prop-2-enamide]	46 nM	9 nM
3 nM		C=CC(=O)Nc1ccc2c(c1)c(C)cn2-c1nc(Nc2ccc(N=S(C)(C)=O)c(F)c2)ncc1C [Example 63, N-[1-[2-[4-[[dimethyl(oxo)-λ^6-sulfanylidene]amino]-3-fluoro-anilino]-5-methyl-pyrimidin-4-yl]-3-methyl-indol-5-yl]prop-2-enamide]	5 nM	1 nM
3 nM		C=CC(=O)Nc1ccc2c(c1)c(C)cn2-c1nc(Nc2ccc(N=S(C)(C)=O)c(OC)c2)ncc1Cl [Example 64, N-[1-[5-Chloro-2-[4-[[dimethyl(oxo)-λ^6-sulfanylidene]amino]-3-methoxy-anilino]pyrimidin-4-yl]-3-methyl-indol-5-yl]prop-2-enamide]	12 nM	3 nM
34 nM	65 nM	C=CC(=O)Nc1ccc2c(ccn2-c2nc(Nc3ccc(N=S(C)(C)=O)cc3)ncc2Cl)c1 [Example 66, N-[1-[5-chloro-2-[4-[[dimethyl(oxo)-λ^6-sulfanylidene]amino]anilino]-pyrimidin-4-yl]indol-5-yl]prop-2-enamide]	28 nM	6 nM
34 nM	12 nM	C=CC(=O)Nc1ccc2c(ccn2-c2nc(Nc3ccc(S(C)(=N)=O)cc3)ncc2Cl)c1 (centres unmarked) [Example 70, N-[1-[5-Chloro-2-[4-(methylsulfonimidoyl)anilino]-pyrimidin-4-yl]indol-5-yl]prop-2-enamide]	34 nM	8 nM
10 nM		C=CC(=O)Nc1ccc2c(-c3nc(Nc4ccc(N=S(C)(C)=O)cc4)ncc3Cl)cn(C)c2c1 [Example 92, N-[3-[5-chloro-2-[4-[[dimethyl(oxo)-λ^6-sulfanylidene]amino]anilino]pyrimidin-4-yl]-1-methyl-indol-6-yl]prop-2-enamide]	15 nM	1 nM
